According to US20110098296A1, “Thiazole And Oxazole Kinase Inhibitors” (priority 2007, published 2011):

Tests used:
Colo205 tumor cells = assay: Method C: Cell Growth Inhibition Assay (CellTiter-Glo), Colo205; assay type: cell-based; settings: Homo sapiens, COLO 205, 72 h, 3 days, 4-parameter fit
Method in brief: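 Luminescent ATP signal (CellTiter-Glo, after 30 min room-temperature equilibration) served as a surrogate for cell number after a 3-day compound exposure at 37° C. Cells were plated at 500/well and treated with serially diluted compound at 0.2% DMSO. IC50 values are 4-parameter fits against DMSO-treated wells.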

B-Raf = B-Raf (Homo sapiens, UniProt P15056); assay: B-Raf Accelerated MEK ATPase assay (BRAMA); assay type: biochemical; settings: Method (A): BRAMA, kinetic read
Method: Compounds of the present invention were tested for B-Raf protein serine kinase inhibitory activity in a B-Raf Accelerated MEK ATPase assay (BRAMA). The BRAMA assay is a high sensitivity assay which measures an intrinsic MEK-mediated ATP hydrolysis uncoupled from downstream ERK phosphorylation by coupling the formation of ADP to NADH oxidation through the enzymes pyruvate kinase and lactate dehydrogenase. When ADP production is initiated by addition of catalytic amounts of an activated Raf enzyme and non-phosphorylated MEK, one observes robust ADP production concomitant with Raf-mediated phosphorylation of MEK.
Method A: Specific details of the assay are disclosed in: C. Rominger, M. Schaber, E. May. Assay for B-Raf Activity Based on Intrinsic MEK ATPase Activity. Statutory Invention Registration Ser. No. 11/084,993 (March, 2005). Method B: The method is the same as method A, but includes the following changes: 1) the assay was performed with a final MEK concentration of 150 nM and 2) the assay was read as single end point instead of a kinetic read.

Sequence of B-Raf (P15056 whole entry): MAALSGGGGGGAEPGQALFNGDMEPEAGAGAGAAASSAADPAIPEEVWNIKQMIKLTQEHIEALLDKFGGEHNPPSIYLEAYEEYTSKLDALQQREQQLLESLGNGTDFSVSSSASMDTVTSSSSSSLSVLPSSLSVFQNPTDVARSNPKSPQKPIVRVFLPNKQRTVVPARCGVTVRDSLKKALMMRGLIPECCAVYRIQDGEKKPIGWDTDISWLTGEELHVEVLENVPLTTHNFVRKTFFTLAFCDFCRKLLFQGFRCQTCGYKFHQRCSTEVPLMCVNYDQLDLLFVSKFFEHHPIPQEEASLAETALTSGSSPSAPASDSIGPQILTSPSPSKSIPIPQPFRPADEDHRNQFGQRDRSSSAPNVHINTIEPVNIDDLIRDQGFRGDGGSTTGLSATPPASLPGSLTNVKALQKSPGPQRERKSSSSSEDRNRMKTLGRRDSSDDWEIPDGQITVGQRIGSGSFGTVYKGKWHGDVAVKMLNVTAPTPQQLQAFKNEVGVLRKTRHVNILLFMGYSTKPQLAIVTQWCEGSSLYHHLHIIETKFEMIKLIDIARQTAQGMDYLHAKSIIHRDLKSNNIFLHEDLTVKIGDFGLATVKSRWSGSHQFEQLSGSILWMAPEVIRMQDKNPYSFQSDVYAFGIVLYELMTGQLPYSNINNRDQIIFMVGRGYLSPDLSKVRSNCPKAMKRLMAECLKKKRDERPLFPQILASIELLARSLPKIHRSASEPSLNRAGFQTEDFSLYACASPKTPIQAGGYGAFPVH

Row | SMILES | IC50 (Colo205 tumor cells) | IC50 (B-Raf)
1 | COc1ccc(Nc2nccc(-c3sc(N)nc3-c3cccc(NC(=O)c4c(F)cccc4F)c3)n2)cc1N1CCNCC1 [Example 18, N-[3-(2-Amino-5-{2-[(4-methoxy-3-piperaziN-1-ylphenyl)amino]pyrimidiN-4-yl}-1,3-thiazol-4-yl)phenyl]-2,6-difluorobenzamide] | > 1 µM | 
2 | Cc1cc(-c2sc(N)nc2-c2cccc(NC(=O)c3c(F)cccc3F)c2)nc(Nc2cccc(F)c2)n1 [Example 48, N-[3-(2-Amino-5-{2-[(3-fluorophenyl)amino]-6-methyl-4-pyrimidinyl}-1,3-thiazol-4-yl)phenyl]-2,6-difluorobenzamide] | > 1 µM | > 1 µM
3 | Cc1nc(-c2cccc(NC(=O)c3c(F)cccc3F)c2)c(-c2ccnc(Nc3ccc(OC4CCN(C(=O)OCc5ccccc5)CC4)c(F)c3)n2)s1 [Example 106] | > 1 µM | 0.1 to 1 µM
4 | CCc1nc(-c2cccc(NC(=O)c3c(F)cccc3F)c2)c(-c2ccnc(Nc3cccc(CN4CCCC4)c3)n2)s1 [Example 115, N-{3-[2-Ethyl-5-(2-{[3-(1-pyrrolidinylmethyl)phenyl]amino}-4-pyrimidinyl)-1,3-thiazol-4-yl]phenyl}-2,6-difluorobenzamide] | 0.1 to 1 µM | 0.1 to 1 µM
